Test results published in patent publication US7009045B2 (priority 2000, dated 2006).

Columns and labels:
[1] = tested on: Candida famata regulatory mutants able to overproduce riboflavin; experiment: Sensitivity to Co^+2 ions, solid Burkholder medium (Table 16); assay type: cell-based; parameters: key: +++: strong growth; ++: weak growth; —: absence of growth
Procedure: (§1) The sensitivity of the regulatory mutants of the yeast C. famata which overproduce riboflavin in iron rich medium probably due to defects in genes regulating repression (repression mutants), to different ions of heavy metals was studied. For this, the analyzed strains were streaked on the YPD plates and then were replica-plated on Burkholder synthetic medium containing leucine (40 μg/ml). The C.famata mutants L20105-40-1-11, L20105-40-1-17, L20105-3-2-1, L20105-3-2-8 and L20105-3-2-12 (all contained leu2 marker) accumulated 80–100 μg riboflavin/ml. The mutants #75, 4-48, 2-5 produced much higher amounts of riboflavin (200–250 μg/ml) but were prototrophs for leucine synthesis. Strain #75 was characterized by retarded growth comparing with other mutants. The strains VKM Y-9 (wild type) and L20105 (leu2) were used as the control strains.

[2] = tested on: Candida famata regulatory mutants able to overproduce riboflavin; experiment: Sensitivity to copper ions, solid Burkholder medium (Table 12); assay type: cell-based; parameters: key: +++: strong growth; ++: weak growth; +: very weak growth; —: absence of growth
Procedure: as §1
Mutants overproducing lower amounts of riboflavin appeared to be more sensitive to CuSO4 (0.15 mM) than that of the strains producing higher amounts of riboflavin (inhibitory concentration 0.5 mM) (Table 12).

SMILES: [Cl-].[Cl-].[Co+2] [CoCl2]
- growth ([1]; #2-5, Co^+2 1.25 μg/ml): +++
- growth ([1]; #2-5, Co^+2 2.5 μg/ml): ++
- growth ([1]; #2-5, Co^+2 5.0 μg/ml): —
- growth ([1]; #2-5, Co^+2 6.25 μg/ml): —
- growth ([1]; #2-5, Co^+2 7.5 μg/ml): —
- growth ([1]; #2-5, Co^+2 8.75 μg/ml): —
- growth ([1]; #2-5, Co^+2 10 μg/ml): —
- growth ([1]; #2-5, Co^+2 11.25 μg/ml): —
- growth ([1]; #2-5, Co^+2 12.5 μg/ml): —
- growth ([1]; #4-48, Co^+2 1.25 μg/ml): +++
- growth ([1]; #4-48, Co^+2 2.5 μg/ml): ++
- growth ([1]; #4-48, Co^+2 3.75 μg/ml): —
- growth ([1]; #4-48, Co^+2 5.0 μg/ml): —
- growth ([1]; #4-48, Co^+2 6.25 μg/ml): —
- growth ([1]; #4-48, Co^+2 7.5 μg/ml): —
- growth ([1]; #4-48, Co^+2 8.75 μg/ml): —
- growth ([1]; #4-48, Co^+2 10 μg/ml): —
- growth ([1]; #4-48, Co^+2 11.25 μg/ml): —
- growth ([1]; #4-48, Co^+2 12.5 μg/ml): —
- growth ([1]; #75, Co^+2 1.25 μg/ml): ++
- growth ([1]; #75, Co^+2 3.75 μg/ml): —
- growth ([1]; #75, Co^+2 5.0 μg/ml): —
- growth ([1]; #75, Co^+2 6.25 μg/ml): —
- growth ([1]; #75, Co^+2 7.5 μg/ml): —
- growth ([1]; #75, Co^+2 8.75 μg/ml): —
- growth ([1]; #75, Co^+2 10 μg/ml): —
- growth ([1]; #75, Co^+2 11.25 μg/ml): —
- growth ([1]; #75, Co^+2 12.5 μg/ml): —
- growth ([1]; L20105 (leu2), Co^+2 1.25 μg/ml): +++
- growth ([1]; L20105 (leu2), Co^+2 2.5 μg/ml): +++
- growth ([1]; L20105 (leu2), Co^+2 3.75 μg/ml): +++
- growth ([1]; L20105 (leu2), Co^+2 5.0 μg/ml): +++
- growth ([1]; L20105 (leu2), Co^+2 6.25 μg/ml): +++
- growth ([1]; L20105 (leu2), Co^+2 7.5 μg/ml): +++
- growth ([1]; L20105 (leu2), Co^+2 8.75 μg/ml): +++
- growth ([1]; L20105 (leu2), Co^+2 10 μg/ml): +++
- growth ([1]; L20105 (leu2), Co^+2 11.25 μg/ml): ++
- growth ([1]; L20105 (leu2), Co^+2 12.5 μg/ml): ++
- growth ([1]; L20105-3-2-1, Co^+2 1.25 μg/ml): +++
- growth ([1]; L20105-3-2-1, Co^+2 2.5 μg/ml): ++
- growth ([1]; L20105-3-2-1, Co^+2 5.0 μg/ml): —
- growth ([1]; L20105-3-2-1, Co^+2 6.25 μg/ml): —
- growth ([1]; L20105-3-2-1, Co^+2 7.5 μg/ml): —
- growth ([1]; L20105-3-2-1, Co^+2 8.75 μg/ml): —
- growth ([1]; L20105-3-2-1, Co^+2 10 μg/ml): —
- growth ([1]; L20105-3-2-1, Co^+2 11.25 μg/ml): —
- growth ([1]; L20105-3-2-1, Co^+2 12.5 μg/ml): —
- growth ([1]; L20105-3-2-8, Co^+2 1.25 μg/ml): +++
- growth ([1]; L20105-3-2-8, Co^+2 2.5 μg/ml): ++
- growth ([1]; L20105-3-2-8, Co^+2 6.25 μg/ml): —
- growth ([1]; L20105-3-2-8, Co^+2 7.5 μg/ml): —
- growth ([1]; L20105-3-2-8, Co^+2 8.75 μg/ml): —
- growth ([1]; L20105-3-2-8, Co^+2 10 μg/ml): —
- growth ([1]; L20105-3-2-8, Co^+2 11.25 μg/ml): —
- growth ([1]; L20105-3-2-8, Co^+2 12.5 μg/ml): —
- growth ([1]; L20105-3-2-9, Co^+2 1.25 μg/ml): +++
- growth ([1]; L20105-3-2-9, Co^+2 2.5 μg/ml): ++
- growth ([1]; L20105-3-2-9, Co^+2 5.0 μg/ml): —
- growth ([1]; L20105-3-2-9, Co^+2 6.25 μg/ml): —
- growth ([1]; L20105-3-2-9, Co^+2 7.5 μg/ml): —
- growth ([1]; L20105-3-2-9, Co^+2 8.75 μg/ml): —
- growth ([1]; L20105-3-2-9, Co^+2 10 μg/ml): —
- growth ([1]; L20105-3-2-9, Co^+2 11.25 μg/ml): —
- growth ([1]; L20105-3-2-9, Co^+2 12.5 μg/ml): —
- growth ([1]; L20105-3-2-12, Co^+2 1.25 μg/ml): +++
- growth ([1]; L20105-3-2-12, Co^+2 2.5 μg/ml): ++
- growth ([1]; L20105-3-2-12, Co^+2 6.25 μg/ml): —
- growth ([1]; L20105-3-2-12, Co^+2 7.5 μg/ml): —
- growth ([1]; L20105-3-2-12, Co^+2 8.75 μg/ml): —
- growth ([1]; L20105-3-2-12, Co^+2 10 μg/ml): —
- growth ([1]; L20105-3-2-12, Co^+2 11.25 μg/ml): —
- growth ([1]; L20105-3-2-12, Co^+2 12.5 μg/ml): —
- growth ([1]; L20105-40-1-11, Co^+2 1.25 μg/ml): +++
- growth ([1]; L20105-40-1-11, Co^+2 2.5 μg/ml): ++
- growth ([1]; L20105-40-1-11, Co^+2 5.0 μg/ml): —
- growth ([1]; L20105-40-1-11, Co^+2 6.25 μg/ml): —
- growth ([1]; L20105-40-1-11, Co^+2 7.5 μg/ml): —
- growth ([1]; L20105-40-1-11, Co^+2 8.75 μg/ml): —
- growth ([1]; L20105-40-1-11, Co^+2 10 μg/ml): —
- growth ([1]; L20105-40-1-11, Co^+2 11.25 μg/ml): —
- growth ([1]; L20105-40-1-11, Co^+2 12.5 μg/ml): —
- growth ([1]; VKM Y-9, Co^+2 1.25 μg/ml): +++
- growth ([1]; VKM Y-9, Co^+2 2.5 μg/ml): +++
- growth ([1]; VKM Y-9, Co^+2 3.75 μg/ml): +++
- growth ([1]; VKM Y-9, Co^+2 5.0 μg/ml): +++
- growth ([1]; VKM Y-9, Co^+2 6.25 μg/ml): +++
- growth ([1]; VKM Y-9, Co^+2 7.5 μg/ml): +++
- growth ([1]; VKM Y-9, Co^+2 8.75 μg/ml): +++
- growth ([1]; VKM Y-9, Co^+2 10 μg/ml): +++
- growth ([1]; VKM Y-9, Co^+2 11.25 μg/ml): +++
- growth ([1]; VKM Y-9, Co^+2 12.5 μg/ml): +++

SMILES: O=S(=O)([O-])[O-].[Cu+2] [CuSO4]
- growth ([2]; #2-5, Cu^+2 0.45 mM): +
- growth ([2]; #4-48, Cu^+2 0.45 mM): +
- growth ([2]; #75, Cu^+2 0.45 mM): +
- growth ([2]; L20105 (leu2), Cu^+2 0.6 mM): +
- growth ([2]; L20105-3-2-4, Cu^+2 0.1 mM): +
- growth ([2]; L20105-3-2-8, Cu^+2 0.1 mM): +
- growth ([2]; L20105-3-2-12, Cu^+2 0.1 mM): +
